Reference: PubChem BioAssay (NCI)
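Results reflect a 48-hour exposure of cells in 96-well plates to compound at five concentrations. TGI: concentration producing complete growth inhibition.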

Experiments:
Test in all cases: inhibition of tumour cell growth, NCI panel, 48 h
RXF-631 renal = tested on: RXF-631 renal
A549 NSCLC = tested on: A549 NSCLC
UACC-257 melanoma = tested on: UACC-257 melanoma
OVCAR-5 ovarian = tested on: OVCAR-5 ovarian
MDA-MB-231 breast = tested on: MDA-MB-231 breast
UO-31 renal = tested on: UO-31 renal
786-0 renal = tested on: 786-0 renal
MDA-N = tested on: MDA-N
LXFL 529 NSCLC = tested on: LXFL 529 NSCLC
HS 578T breast = tested on: HS 578T breast
M19-MEL melanoma = tested on: M19-MEL melanoma
HL-60(TB) leukemia = tested on: HL-60(TB) leukemia
HCT-15 colon = tested on: HCT-15 colon
U251 CNS = tested on: U251 CNS
SF-268 CNS = tested on: SF-268 CNS
OVCAR-4 ovarian = tested on: OVCAR-4 ovarian
SK-MEL-28 melanoma = tested on: SK-MEL-28 melanoma
HCC-2998 colon = tested on: HCC-2998 colon
DU-145 prostate = tested on: DU-145 prostate
MCF7 breast = tested on: MCF7 breast
DMS 114 small cell lung = tested on: DMS 114 small cell lung
SW-620 colon = tested on: SW-620 colon
PC-3 prostate = tested on: PC-3 prostate
SK-OV-3 ovarian = tested on: SK-OV-3 ovarian
UACC-62 melanoma = tested on: UACC-62 melanoma
T-47D breast = tested on: T-47D breast
RXF 393 renal = tested on: RXF 393 renal
ACHN renal = tested on: ACHN renal
M14 melanoma = tested on: M14 melanoma
SN12C renal = tested on: SN12C renal
NCI-H460 lung = tested on: NCI-H460 lung
SK-MEL-2 melanoma = tested on: SK-MEL-2 melanoma
CAKI-1 renal = tested on: CAKI-1 renal
NCI-H226 lung = tested on: NCI-H226 lung
CCRF-CEM leukemia = tested on: CCRF-CEM leukemia
SK-MEL-5 melanoma = tested on: SK-MEL-5 melanoma
HOP-92 NSCLC = tested on: HOP-92 NSCLC
LOX IMVI melanoma = tested on: LOX IMVI melanoma
MDA-MB-435 = tested on: MDA-MB-435
OVCAR-8 ovarian = tested on: OVCAR-8 ovarian
NCI/ADR-RES ovarian = tested on: NCI/ADR-RES ovarian
SNB-78 CNS = tested on: SNB-78 CNS
SNB-19 CNS = tested on: SNB-19 CNS
A498 renal = tested on: A498 renal
HOP-62 NSCLC = tested on: HOP-62 NSCLC
MALME-3M melanoma = tested on: MALME-3M melanoma
OVCAR-3 ovarian = tested on: OVCAR-3 ovarian
IGROV1 ovarian = tested on: IGROV1 ovarian
SR leukemia = tested on: SR leukemia
NCI-H23 lung = tested on: NCI-H23 lung
K-562 leukemia = tested on: K-562 leukemia
TK-10 renal = tested on: TK-10 renal
HOP-18 NSCLC = tested on: HOP-18 NSCLC
RPMI-8226 leukemia = tested on: RPMI-8226 leukemia
DMS 273 small cell lung = tested on: DMS 273 small cell lung
COLO 205 colon = tested on: COLO 205 colon
KM12 colon = tested on: KM12 colon
SF-539 CNS = tested on: SF-539 CNS
EKVX NSCLC = tested on: EKVX NSCLC
XF 498 CNS = tested on: XF 498 CNS
SNB-75 CNS = tested on: SNB-75 CNS
NCI-H522 lung = tested on: NCI-H522 lung
HCT-116 colon = tested on: HCT-116 colon
SF-295 CNS = tested on: SF-295 CNS
BT-549 breast = tested on: BT-549 breast
HT29 colon = tested on: HT29 colon
DLD-1 colon = tested on: DLD-1 colon
KM20L2 colon = tested on: KM20L2 colon
MOLT-4 leukemia = tested on: MOLT-4 leukemia

CSC(=Nc1ccccc1)/N=C(\SCc1ccccc1)N(C)C
TGI (RXF-631 renal): 3.12 µM | TGI (A549 NSCLC): 4.63 µM | TGI (UACC-257 melanoma): 3.23 µM | TGI (OVCAR-5 ovarian): 2.84 µM | TGI (MDA-MB-231 breast): 2.39 µM | TGI (UO-31 renal): 2.82 µM | TGI (786-0 renal): 1.78 µM | TGI (MDA-N): 2.03 µM | TGI (LXFL 529 NSCLC): 1.79 µM | TGI (HS 578T breast): 4.17 µM | TGI (M19-MEL melanoma): 3.36 µM | TGI (HL-60(TB) leukemia): > 100 µM | TGI (HCT-15 colon): 2.38 µM | TGI (U251 CNS): 2.54 µM | TGI (SF-268 CNS): 2.48 µM | TGI (OVCAR-4 ovarian): 2.43 µM | TGI (SK-MEL-28 melanoma): 1.79 µM | TGI (HCC-2998 colon): 1.69 µM | TGI (DU-145 prostate): 2.13 µM | TGI (MCF7 breast): 1.19 µM | TGI (DMS 114 small cell lung): 3.77 µM | TGI (SW-620 colon): 1.83 µM | TGI (PC-3 prostate): 2.55 µM | TGI (SK-OV-3 ovarian): 6.69 µM | TGI (UACC-62 melanoma): 1.87 µM | TGI (T-47D breast): 1.97 µM | TGI (RXF 393 renal): 2.3 µM | TGI (ACHN renal): 2.39 µM | TGI (M14 melanoma): 2.12 µM | TGI (SN12C renal): 2.42 µM | TGI (NCI-H460 lung): 0.691 µM | TGI (SK-MEL-2 melanoma): 3.44 µM | TGI (CAKI-1 renal): 2.79 µM | TGI (NCI-H226 lung): 3.1 µM | TGI (CCRF-CEM leukemia): > 100 µM | TGI (SK-MEL-5 melanoma): 2.92 µM | TGI (HOP-92 NSCLC): 2.73 µM | TGI (LOX IMVI melanoma): 0.383 µM | TGI (MDA-MB-435): 2.48 µM | TGI (OVCAR-8 ovarian): 3.22 µM | TGI (NCI/ADR-RES ovarian): 3.77 µM | TGI (SNB-78 CNS): 4.16 µM | TGI (SNB-19 CNS): 2.68 µM | TGI (A498 renal): 5.27 µM | TGI (HOP-62 NSCLC): 3.31 µM | TGI (MALME-3M melanoma): 2.65 µM | TGI (OVCAR-3 ovarian): 2.1 µM | TGI (IGROV1 ovarian): 2.45 µM | TGI (SR leukemia): > 100 µM | TGI (NCI-H23 lung): 3.32 µM | TGI (K-562 leukemia): > 100 µM | TGI (TK-10 renal): 2.63 µM | TGI (HOP-18 NSCLC): 2.1 µM | TGI (RPMI-8226 leukemia): 3.57 µM | TGI (DMS 273 small cell lung): 2.57 µM | TGI (COLO 205 colon): 1.58 µM | TGI (KM12 colon): 2.76 µM | TGI (SF-539 CNS): 2.57 µM | TGI (EKVX NSCLC): 3.33 µM | TGI (XF 498 CNS): 2.66 µM | TGI (SNB-75 CNS): 3.25 µM | TGI (NCI-H522 lung): 0.54 µM | TGI (HCT-116 colon): 1.38 µM | TGI (SF-295 CNS): 2.89 µM | TGI (BT-549 breast): 2.86 µM | TGI (HT29 colon): 1.05 µM

COc1cc(CCc2ccc(N)cc2)cc(OC)c1OC
TGI (RXF-631 renal): > 100 µM | TGI (A549 NSCLC): > 100 µM | TGI (UACC-257 melanoma): > 100 µM | TGI (OVCAR-5 ovarian): > 100 µM | TGI (UO-31 renal): > 93.1 µM | TGI (786-0 renal): > 100 µM | TGI (LXFL 529 NSCLC): > 100 µM | TGI (M19-MEL melanoma): > 100 µM | TGI (HL-60(TB) leukemia): > 92.5 µM | TGI (HCT-15 colon): > 100 µM | TGI (U251 CNS): > 100 µM | TGI (SF-268 CNS): > 100 µM | TGI (OVCAR-4 ovarian): > 100 µM | TGI (SK-MEL-28 melanoma): 92.8 µM | TGI (HCC-2998 colon): > 100 µM | TGI (DMS 114 small cell lung): 83.8 µM | TGI (SW-620 colon): > 100 µM | TGI (SK-OV-3 ovarian): > 100 µM | TGI (UACC-62 melanoma): > 89.8 µM | TGI (RXF 393 renal): > 91.1 µM | TGI (ACHN renal): > 100 µM | TGI (M14 melanoma): > 100 µM | TGI (SN12C renal): > 100 µM | TGI (NCI-H460 lung): > 100 µM | TGI (SK-MEL-2 melanoma): 82.6 µM | TGI (CAKI-1 renal): > 100 µM | TGI (NCI-H226 lung): > 100 µM | TGI (CCRF-CEM leukemia): > 100 µM | TGI (SK-MEL-5 melanoma): > 89.6 µM | TGI (DLD-1 colon): > 100 µM | TGI (HOP-92 NSCLC): > 100 µM | TGI (LOX IMVI melanoma): > 100 µM | TGI (OVCAR-8 ovarian): > 100 µM | TGI (SNB-78 CNS): 85 µM | TGI (SNB-19 CNS): > 100 µM | TGI (A498 renal): > 100 µM | TGI (HOP-62 NSCLC): > 100 µM | TGI (MALME-3M melanoma): > 80 µM | TGI (OVCAR-3 ovarian): > 100 µM | TGI (IGROV1 ovarian): > 100 µM | TGI (NCI-H23 lung): > 100 µM | TGI (K-562 leukemia): > 100 µM | TGI (KM20L2 colon): > 100 µM | TGI (TK-10 renal): > 100 µM | TGI (HOP-18 NSCLC): > 100 µM | TGI (RPMI-8226 leukemia): > 100 µM | TGI (DMS 273 small cell lung): > 100 µM | TGI (COLO 205 colon): 53.1 µM | TGI (MOLT-4 leukemia): > 100 µM | TGI (KM12 colon): > 100 µM | TGI (SF-539 CNS): > 100 µM | TGI (EKVX NSCLC): > 100 µM | TGI (XF 498 CNS): > 100 µM | TGI (SNB-75 CNS): > 100 µM | TGI (NCI-H522 lung): > 83.4 µM | TGI (HCT-116 colon): > 100 µM | TGI (SF-295 CNS): > 61.6 µM | TGI (HT29 colon): > 100 µM

CCOC(=O)C1(C)CCCCC(=O)N1 (centres undefined)
TGI (RXF-631 renal): > 100 µM | TGI (A549 NSCLC): > 100 µM | TGI (UO-31 renal): > 100 µM | TGI (786-0 renal): > 100 µM | TGI (LXFL 529 NSCLC): > 100 µM | TGI (M19-MEL melanoma): > 100 µM | TGI (HL-60(TB) leukemia): > 100 µM | TGI (HCT-15 colon): > 100 µM | TGI (U251 CNS): > 100 µM | TGI (SF-268 CNS): > 100 µM | TGI (OVCAR-4 ovarian): > 100 µM | TGI (SK-MEL-28 melanoma): > 100 µM | TGI (HCC-2998 colon): > 100 µM | TGI (DMS 114 small cell lung): > 100 µM | TGI (SW-620 colon): > 100 µM | TGI (SK-OV-3 ovarian): > 100 µM | TGI (UACC-62 melanoma): > 100 µM | TGI (RXF 393 renal): > 100 µM | TGI (ACHN renal): > 100 µM | TGI (M14 melanoma): > 100 µM | TGI (SN12C renal): > 100 µM | TGI (NCI-H460 lung): > 100 µM | TGI (CAKI-1 renal): > 100 µM | TGI (DLD-1 colon): > 100 µM | TGI (HOP-92 NSCLC): > 100 µM | TGI (LOX IMVI melanoma): > 100 µM | TGI (OVCAR-8 ovarian): > 100 µM | TGI (SNB-78 CNS): > 100 µM | TGI (SNB-19 CNS): > 100 µM | TGI (HOP-62 NSCLC): > 100 µM | TGI (MALME-3M melanoma): > 100 µM | TGI (OVCAR-3 ovarian): > 100 µM | TGI (IGROV1 ovarian): > 100 µM | TGI (NCI-H23 lung): > 100 µM | TGI (K-562 leukemia): > 100 µM | TGI (KM20L2 colon): > 100 µM | TGI (TK-10 renal): > 100 µM | TGI (HOP-18 NSCLC): > 100 µM | TGI (DMS 273 small cell lung): > 100 µM | TGI (COLO 205 colon): > 100 µM | TGI (EKVX NSCLC): > 100 µM | TGI (XF 498 CNS): > 100 µM | TGI (SNB-75 CNS): > 100 µM | TGI (SF-295 CNS): > 100 µM | TGI (HT29 colon): > 100 µM
